# Assay results as given in patent publication US6071884A, “Pharmaceutical compositions and therapeutic methods” (Kirin Beer Kabushiki Kaisha, priority 1992, dated 2000).
# Assays:
# Acute toxicity = format: in vivo; settings: 7 days
# Procedure: Test Example 2: Acute Toxicity
# 0.1, 1.0 or 10 mg/kg of Compound 5 or 33 was intravenously administered to Crj:CD rats (male, 5 weeks old), 6 rats in one group. 7 days after the administration, a toxicity test was carried out.
# [1] = Life-span-increasing effect on irradiation of a lethal dose of radiation; format: in vivo, mouse (BDF1); settings: 10 mice/group, 9 Gy X-ray, 0.1 mg/kg i.v. days 0, 4, 8
# Procedure: Pharmacological Test 4: Life-Span-Increasing Effect on Irradiation of a Lethal Dose of Radiation
# An experiment was carried out by using 6 week old female BDF1 mice purchased from Japan SLC Co., Ltd., with 10 mice made one group.
# The entire bodies of the entire body of the mice were irradiated with 9 Gy of X-rays by using a Hitachi X-ray irradiator (MBR-1520R), and the day on which the X-ray was irradiated was referred to as "day 0".
# [2] = system: marrow cells (mononuclear cell fraction); assay: Effect on marrow cell of monkey (3H-TdR uptake); format: cell-based, croo monkey; settings: Primates, 96 h, percentage of control, 4 days
# Procedure: Pharmacological Test 2: Effect on Marrow Cell of Monkey
# Marrow cells were prepared from the humerus of a croo monkey, and an MNF obtained by fractionation using a Lymphoprep (Nycomed Pharma AS, Oslo, Norway) was used in the following experiment.
# The MNF was suspended in an RPMI 1640 medium added with 10% blood plasma of a croo monkey to make its concentration 1×10^6 cells/ml.
# 10 μl/well of a sample with a predetermined concentration and 100 μl/well of the above-prepared MNF were placed on a round-bottomed 96 well plate, and incubated under the conditions of 37° C. and 5% CO2 for 4 days. Thereafter, 0.5 μCi/well of ^3 H-TdR was added. After 6 hours, the cells were harvested, and the amount of the ^3 H-TdR taken in the nuclei was measured by a liquid scintillation counter.
# red blood cells = assay: Red blood cell count in monkey; format: in vivo, croo monkey; settings: for Number of Red Blood Cells: mean ± SD
# Procedure: (§1) Pharmacological Test 7: Blood-Platelet-Increasing Effect upon Monkey
# (§2) Six croo monkeys (female, 3 to 5 years old, 2.3 to 2.8 kg), 2 monkeys in one group were used. A vehicle, 0.1 mg/body of the compound 33 or 1 mg/body of the compound 33 was intravenously administered to the monkeys. 6 and 9 days after the administration, blood was collected by using a blood-collecting tube EDTA-2K, and the numbers of blood platelets, white blood cells and red blood cells contained in the peripheral blood were measured by using an E-2500/cs. The results are shown in Tables 7-1, 7-2 and 7-3, respectively.
# [3] = Observation of body weight and general condition in monkey; format: in vivo, croo monkey; settings: 1 mg/body i.v.; until 10 days after administration
# blood platelets [4] = assay: Blood-platelet-increasing effect upon monkey; format: in vivo, croo monkey; settings: for Number of Blood Platelets: mean ± SD
# Procedure: Subsequently, in order to examine the effect on Primates, the effect of Compound 33 was examined as a representative of the compounds represented by the formula (A), by using normal croo monkeys.
# as §1, §2
# blood platelets [5] = assay: Blood-platelet-increasing effect upon normal mouse; format: in vivo, mouse (BDF1); settings: normal mice; 6 days after 0.1 mg/kg i.v.; mean ± SD; vehicle per series 58.2, 63.0, 71.1
# Outline: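 Female BDF1 mice, 6 weeks old (5 per group), received test sample at 0.1 mg/kg into the caudal vein. Six days later, fundus-vein blood was taken and platelets counted on a multi-channel hemocytometer, compared against vehicle-treated animals.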
# [6] = system: marrow cells (mononuclear cell fraction); assay: Proliferation-stimulating effect on marrow cell of mouse (3H-TdR uptake); format: cell-based, mouse (BALB/c); settings: percentage of control, 72 h
# Outline: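 Mononuclear marrow cell fraction from 7-week-old female BALB/c mouse thigh bone, 1.5×10^6 cells/ml in 10% FCS RPMI 1640, cultured with test sample 72 h at 37° C. ³H-thymidine (0.5 μCi/well) then added for 8 h; nuclear ³H-TdR uptake counted by liquid scintillation.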
# white blood cells = assay: White blood cell count in monkey; format: in vivo, croo monkey; settings: for Number of White Blood Cells: mean ± SD
# Procedure: as §1, §2
smiles,measurement,setting,value
"CCCCCCCCCCCCCCCCCCCCCCCCCC(=O)N[C@@H](CO[C@H]1O[C@H](CO)[C@H](O)[C@H](O)[C@H]1O)[C@H](O)[C@H](O)CCCCCCCCCCCCCC [Compound 33, (2S,3S,4R)-1-(α-D-galactopyranosyloxy)-2-hexacosanoylamino-3,4-octadecanediol]",death of rats,Acute toxicity; 10 mg/kg i.v.,the rats did not die
same,post-mortem examination,"Acute toxicity; i.v. 0.1, 1.0 or 10 mg/kg",no abnormality was found
same,LD50 at 168 h,"Acute toxicity; rat, in vivo, iv, male rats",≥ 10 mg/kg
same,Number of Surviving Mice,"[1]; day 10, controls per series 10, 10, 10, 10, 10, 8",10 mice
same,Number of Surviving Mice,"[1]; day 15, controls per series 8, 9, 5, 5, 7, 1",8 mice
same,Number of Surviving Mice,"[1]; day 20, controls per series 4, 5, 1, 2, 3, 0",7 mice
same,Number of Surviving Mice,"[1]; day 25, controls per series 3, 3, 0, 0, 2, 0",5 mice
same,Number of Surviving Mice,"[1]; day 30, controls per series 1, 1, 0, 0, 0, 0",5 mice
same,Number of Surviving Mice,"[1]; day 35, all controls 0",5 mice
same,Number of Surviving Mice,"[1]; day 40, all controls 0",5 mice
same,activity at 0.1 µg/mL,[2]; 10^-1 μg/ml,177%
same,activity at 0.01 µg/mL,[2]; 10^-2 μg/ml,194%
same,Number of Red Blood Cells,"red blood cells; 0.1 mg/body i.v., after 6 days, vehicle 516 ± 6",498 ± 18 × 10^4 /μl
same,Number of Red Blood Cells,"red blood cells; 0.1 mg/body i.v., after 9 days, vehicle 506 ± 1",538 ± 2 × 10^4 /μl
same,red-blood-cell-increasing effect (in words),"red blood cells; 0.1 mg/body, 9 days after administration",red-blood-cell-increasing effect was clearly found
same,Number of Red Blood Cells,"red blood cells; 1 mg/body i.v., after 6 days, vehicle 516 ± 6",569 ± 40 × 10^4 /μl
same,Number of Red Blood Cells,"red blood cells; 1 mg/body i.v., after 9 days, vehicle 506 ± 1",574 ± 37 × 10^4 /μl
same,abnormality in body weight and in general condition,[3],no abnormality in body weight and in general condition was found
same,Number of Blood Platelets,"blood platelets [4]; 0.1 mg/body i.v., after 6 days, vehicle 37.8 ± 8.5",56.4 ± 5.2 × 10^4 /μl
same,Number of Blood Platelets,"blood platelets [4]; 0.1 mg/body i.v., after 9 days, vehicle 37.4 ± 12.4",52.4 ± 9.0 × 10^4 /μl
same,blood-platelet-increasing effect (in words),"blood platelets [4]; 0.1 mg/body, almost equal to 1 mg/body",remarkable blood-platelet-increasing effect
same,Number of Blood Platelets,"blood platelets [4]; 1 mg/body i.v., after 6 days, vehicle 37.8 ± 8.5",62.1 ± 15.9 × 10^4 /μl
same,Number of Blood Platelets,"blood platelets [4]; 1 mg/body i.v., after 9 days, vehicle 37.4 ± 12.4",64.7 ± 23.7 × 10^4 /μl
same,Number of Blood Platelets,blood platelets [5],142.3 ± 10.2 × 10^4 /μl
same,activity at 0.1 µg/mL,[6]; 10^-1 μg/ml,460%
same,activity at 0.01 µg/mL,[6]; 10^-2 μg/ml,330%
same,activity at 0.001 µg/mL,[6]; 10^-3 μg/ml,175%
same,Number of White Blood Cells,"white blood cells; 0.1 mg/body i.v., after 6 days, vehicle 91 ± 31",156 ± 1 × 10^2 /μl
same,Number of White Blood Cells,"white blood cells; 0.1 mg/body i.v., after 9 days, vehicle 94 ± 57",105 ± 15 × 10^2 /μl
same,white-blood-cell-increasing effect (in words),"white blood cells; 0.1 mg/body, 6 days after administration, equal to 1 mg/body",remarkable white-blood-cell-increasing effect
same,Number of White Blood Cells,"white blood cells; 1 mg/body i.v., after 6 days, vehicle 91 ± 31",150 ± 37 × 10^2 /μl
same,Number of White Blood Cells,"white blood cells; 1 mg/body i.v., after 9 days, vehicle 94 ± 57",169 ± 21 × 10^2 /μl
